Measurements taken from ChEMBL document CHEMBL6071156 (Eur J Med Chem, 2024).
Activity calls are given as the source filed them. The calls are words filed in the database; no cut-off is given here.

Legend:
[1] = C0 in C57BL/6 mouse plasma at 2.5 mg/kg, iv measured upto 24 hrs post dosing by LC-MS/MS; type: ADME, organism-based; settings: in vivo
[2] = Half life in C57BL/6 mouse plasma at 2.5 mg/kg, iv measured upto 24 hrs post dosing by LC-MS/MS; type: ADME, organism-based; settings: in vivo
[3] = Volume in the terminal state in C57BL/6 mouse plasma at 2.5 mg/kg, iv measured upto 24 hrs post dosing by LC-MS/MS; type: ADME, organism-based; settings: in vivo
[4] = Volume of distribution at steady state in C57BL/6 mouse plasma at 2.5 mg/kg, iv measured upto 24 hrs post dosing by LC-MS/MS; type: ADME, organism-based; settings: in vivo
[5] = MRT in C57BL/6 mouse plasma at 2.5 mg/kg, iv measured upto 24 hrs post dosing by LC-MS/MS; type: ADME, organism-based; settings: in vivo
[6] = Tmax in C57BL/6 mouse plasma at 10 mg/kg, po measured 4 hrs post dosing by LC-MS/MS; type: ADME, organism-based; settings: in vivo
[7] = Cmax in C57BL/6 mouse plasma at 10 mg/kg, po measured upto 24 hrs post dosing by LC-MS/MS; type: ADME, organism-based; settings: in vivo
[8] = MRT in C57BL/6 mouse plasma at 10 mg/kg, po measured upto 24 hrs post dosing by LC-MS/MS; type: ADME, organism-based; settings: in vivo
Chikungunya virus [9] = experiment: Antiviral activity against CHIKV infected in C57BL/6 mouse assessed as mouse survival at 300 mg/kg/day, ip measured after 6 days post infection; type: functional, organism-based; settings: time 6.0 day
Chikungunya virus [10] = experiment: Antiviral activity against CHIKV infected in C57BL/6 mouse assessed as mouse survival at 100 mg/kg/day, ip measured after 6 days post infection; type: functional, organism-based; settings: time 6.0 day
Chikungunya virus [11] = experiment: Antiviral activity against CHIKV infected in C57BL/6 mouse assessed as virus titers at 300 mg/kg/day, ip measured after 6 days post infection (reference value: 5.3+/0.3); type: functional; settings: time 6 day
[12] = Toxicity in C57BL/6 mouse model assessed as effect on ALT level at 300 mg/kg/day, ip measured after 6 days post infection (reference value: 29 to 33); type: organism-based; settings: in vivo, 144 h, time 6 day
[13] = Toxicity in C57BL/6 mouse model assessed as effect on BUN level at 300 mg/kg/day, ip measured after 6 days post infection (reference value: 20 to 30); type: organism-based; settings: in vivo, 144 h, time 6 day
[14] = Toxicity in C57BL/6 mouse model assessed as effect on DBILI level at 300 mg/kg/day, ip measured after 6 days post infection (reference value: 0.25 to 0.33); type: organism-based; settings: in vivo, 144 h, time 6 day
[15] = Toxicity in C57BL/6 mouse model assessed as effect on TBILI level at 300 mg/kg/day, ip measured after 6 days post infection (reference value: 0.30 to 0.43); type: organism-based; settings: in vivo, 144 h, time 6 day
Chikungunya virus [16] = type: functional, organism-based; settings: dose 300.0 mg/kg/day, time 5-6 day
[17] = Metabolic stability in human liver microsomes assessed as intrinsic clearance by HPLC-MS/MS analysis; type: ADME, Microsome
[18] = Metabolic stability in human liver S9 fraction assessed as intrinsic clearance by HPLC-MS/MS analysis; type: ADME, subcellular
[19] = Metabolic stability in human liver S9 fraction assessed as half life by HPLC-MS/MS analysis; type: ADME, subcellular
Chikungunya virus [20] = experiment: Antiviral activity against CHIKV S27 in green monkey Vero 76 cells assessed as reduction in virus yield measured after 3 days by Virus yield reduction assay; type: functional; settings: S27, Vero 76, 72 h, time 3 day
Cytochrome P450 2C8 = target: T1, Cytochrome P450 2C8 (Homo sapiens, UniProt P10632); experiment: Inhibition of CYP2C8 (unknown origin); type: ADME
T1 sequence (P10632 whole entry): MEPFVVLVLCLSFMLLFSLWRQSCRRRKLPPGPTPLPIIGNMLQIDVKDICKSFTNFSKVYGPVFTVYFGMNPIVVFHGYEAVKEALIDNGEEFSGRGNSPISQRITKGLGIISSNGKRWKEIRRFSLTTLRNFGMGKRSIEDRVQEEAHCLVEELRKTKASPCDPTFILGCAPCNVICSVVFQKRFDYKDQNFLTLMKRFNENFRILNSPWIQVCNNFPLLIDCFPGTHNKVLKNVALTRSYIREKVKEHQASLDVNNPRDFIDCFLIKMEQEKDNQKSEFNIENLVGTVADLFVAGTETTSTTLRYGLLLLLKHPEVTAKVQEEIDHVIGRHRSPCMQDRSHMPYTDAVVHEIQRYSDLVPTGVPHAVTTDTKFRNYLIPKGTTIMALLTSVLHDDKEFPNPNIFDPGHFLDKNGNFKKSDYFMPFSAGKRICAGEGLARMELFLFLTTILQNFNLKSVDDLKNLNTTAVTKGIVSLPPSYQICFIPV

Cytochrome P450 2C9 = Cytochrome P450 2C9 (Homo sapiens, UniProt P11712); experiment: Inhibition of CYP2C9 (unknown origin); type: ADME
Cytochrome P450 2D6 = Cytochrome P450 2D6 (Homo sapiens, UniProt P10635); experiment: Inhibition of CYP2D6 (unknown origin); type: ADME
Cytochrome P450 3A4 = Cytochrome P450 3A4 (Homo sapiens, UniProt P08684); experiment: Inhibition of CYP3A4 (unknown origin); type: ADME
[21] = target: T2, Potassium voltage-gated channel subfamily KQT member 1 (Homo sapiens, UniProt P51787); experiment: Antagonist activity at recombinant hKCNQ1/hmink expressed in CHO-K1 cells by Electrophysiology; type: toxicity, cell-based
T2 sequence (P51787 whole entry): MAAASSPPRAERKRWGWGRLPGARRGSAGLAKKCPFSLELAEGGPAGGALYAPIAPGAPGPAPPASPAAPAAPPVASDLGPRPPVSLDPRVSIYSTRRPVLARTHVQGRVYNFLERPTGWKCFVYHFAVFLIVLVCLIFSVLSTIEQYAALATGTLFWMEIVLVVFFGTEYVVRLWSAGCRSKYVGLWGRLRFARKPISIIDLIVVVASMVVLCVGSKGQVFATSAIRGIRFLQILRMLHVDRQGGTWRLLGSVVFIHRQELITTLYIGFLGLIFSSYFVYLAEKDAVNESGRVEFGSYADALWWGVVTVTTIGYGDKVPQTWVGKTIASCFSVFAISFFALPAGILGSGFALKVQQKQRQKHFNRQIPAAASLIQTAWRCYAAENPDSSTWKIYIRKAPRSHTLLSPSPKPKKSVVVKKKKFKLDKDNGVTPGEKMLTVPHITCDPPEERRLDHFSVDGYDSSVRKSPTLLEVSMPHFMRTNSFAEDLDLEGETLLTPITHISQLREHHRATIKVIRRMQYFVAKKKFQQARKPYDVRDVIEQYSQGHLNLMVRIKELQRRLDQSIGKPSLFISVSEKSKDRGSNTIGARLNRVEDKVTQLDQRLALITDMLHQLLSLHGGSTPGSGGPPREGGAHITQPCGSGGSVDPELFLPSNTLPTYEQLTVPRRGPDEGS

Kir2.1 = experiment: Antagonist activity at hKir2.1 expressed in HEK293 cells by Electrophysiology; type: toxicity, cell-based; settings: human, HEK293 cells expressing hKir2.1
[22] = target: Voltage-gated inwardly rectifying potassium channel KCNH2 (Homo sapiens, UniProt Q12809); experiment: Antagonist activity at recombinant hERG expressed in CHO-K1 cells by Electrophysiology; type: toxicity, cell-based
Chain of Voltage-gated inwardly rectifying potassium channel KCNH2 (Q12809 whole entry): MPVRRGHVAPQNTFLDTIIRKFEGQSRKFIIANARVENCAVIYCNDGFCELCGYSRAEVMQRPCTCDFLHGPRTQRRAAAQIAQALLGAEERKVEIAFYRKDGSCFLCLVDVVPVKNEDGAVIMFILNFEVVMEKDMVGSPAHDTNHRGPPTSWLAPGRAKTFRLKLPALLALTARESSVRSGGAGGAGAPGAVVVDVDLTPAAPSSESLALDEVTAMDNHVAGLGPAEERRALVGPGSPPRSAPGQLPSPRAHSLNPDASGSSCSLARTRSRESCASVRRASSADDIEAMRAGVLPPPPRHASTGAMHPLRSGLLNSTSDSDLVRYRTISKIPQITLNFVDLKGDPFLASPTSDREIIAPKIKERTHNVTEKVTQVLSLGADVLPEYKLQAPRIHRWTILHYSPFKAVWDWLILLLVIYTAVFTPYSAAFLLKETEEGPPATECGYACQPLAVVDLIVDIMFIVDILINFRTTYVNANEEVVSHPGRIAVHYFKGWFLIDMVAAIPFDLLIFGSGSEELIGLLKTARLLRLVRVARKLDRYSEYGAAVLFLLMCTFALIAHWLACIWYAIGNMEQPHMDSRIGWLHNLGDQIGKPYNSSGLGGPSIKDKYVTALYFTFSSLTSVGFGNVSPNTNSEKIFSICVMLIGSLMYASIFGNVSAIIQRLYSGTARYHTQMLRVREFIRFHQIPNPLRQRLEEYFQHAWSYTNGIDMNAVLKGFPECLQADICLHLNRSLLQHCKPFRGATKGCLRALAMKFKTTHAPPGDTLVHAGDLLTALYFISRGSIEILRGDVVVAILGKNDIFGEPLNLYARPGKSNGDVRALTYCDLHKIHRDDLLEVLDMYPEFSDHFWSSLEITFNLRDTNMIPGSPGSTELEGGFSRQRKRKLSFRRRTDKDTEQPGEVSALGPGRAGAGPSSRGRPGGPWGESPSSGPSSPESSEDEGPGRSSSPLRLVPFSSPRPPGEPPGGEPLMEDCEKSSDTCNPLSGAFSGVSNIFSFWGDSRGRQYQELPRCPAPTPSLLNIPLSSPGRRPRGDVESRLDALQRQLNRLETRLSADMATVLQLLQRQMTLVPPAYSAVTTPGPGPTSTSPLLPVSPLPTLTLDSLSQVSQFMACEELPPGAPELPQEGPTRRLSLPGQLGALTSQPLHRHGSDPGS

Chain of Cytochrome P450 2C9 (P11712 whole entry): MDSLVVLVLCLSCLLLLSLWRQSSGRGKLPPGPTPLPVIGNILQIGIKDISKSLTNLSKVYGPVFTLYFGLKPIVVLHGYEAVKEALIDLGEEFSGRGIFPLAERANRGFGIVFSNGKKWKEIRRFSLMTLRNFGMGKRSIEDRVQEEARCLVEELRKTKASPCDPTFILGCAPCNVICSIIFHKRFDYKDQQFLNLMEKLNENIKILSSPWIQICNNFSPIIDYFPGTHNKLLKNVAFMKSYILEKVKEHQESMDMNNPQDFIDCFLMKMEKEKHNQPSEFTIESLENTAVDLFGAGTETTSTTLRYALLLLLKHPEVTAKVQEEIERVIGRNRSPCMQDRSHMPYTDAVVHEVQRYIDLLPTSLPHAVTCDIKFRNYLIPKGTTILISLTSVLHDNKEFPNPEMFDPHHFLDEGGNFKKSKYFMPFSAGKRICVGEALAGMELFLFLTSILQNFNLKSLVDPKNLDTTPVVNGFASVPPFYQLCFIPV
Chain of Cytochrome P450 3A4 (P08684 whole entry): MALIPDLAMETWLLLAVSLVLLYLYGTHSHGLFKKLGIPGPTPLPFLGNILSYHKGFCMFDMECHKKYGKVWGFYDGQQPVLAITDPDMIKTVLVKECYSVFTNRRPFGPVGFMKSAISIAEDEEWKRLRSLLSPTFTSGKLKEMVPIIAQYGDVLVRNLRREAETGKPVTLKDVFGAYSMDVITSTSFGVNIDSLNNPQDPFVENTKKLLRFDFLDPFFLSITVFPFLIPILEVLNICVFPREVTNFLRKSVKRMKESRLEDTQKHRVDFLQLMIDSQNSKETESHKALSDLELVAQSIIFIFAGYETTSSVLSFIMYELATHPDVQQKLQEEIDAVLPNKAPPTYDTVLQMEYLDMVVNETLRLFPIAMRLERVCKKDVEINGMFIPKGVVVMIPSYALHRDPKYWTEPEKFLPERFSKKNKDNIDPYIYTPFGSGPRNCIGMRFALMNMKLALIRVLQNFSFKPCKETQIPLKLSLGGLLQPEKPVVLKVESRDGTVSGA
Chain of Cytochrome P450 2D6 (P10635 whole entry): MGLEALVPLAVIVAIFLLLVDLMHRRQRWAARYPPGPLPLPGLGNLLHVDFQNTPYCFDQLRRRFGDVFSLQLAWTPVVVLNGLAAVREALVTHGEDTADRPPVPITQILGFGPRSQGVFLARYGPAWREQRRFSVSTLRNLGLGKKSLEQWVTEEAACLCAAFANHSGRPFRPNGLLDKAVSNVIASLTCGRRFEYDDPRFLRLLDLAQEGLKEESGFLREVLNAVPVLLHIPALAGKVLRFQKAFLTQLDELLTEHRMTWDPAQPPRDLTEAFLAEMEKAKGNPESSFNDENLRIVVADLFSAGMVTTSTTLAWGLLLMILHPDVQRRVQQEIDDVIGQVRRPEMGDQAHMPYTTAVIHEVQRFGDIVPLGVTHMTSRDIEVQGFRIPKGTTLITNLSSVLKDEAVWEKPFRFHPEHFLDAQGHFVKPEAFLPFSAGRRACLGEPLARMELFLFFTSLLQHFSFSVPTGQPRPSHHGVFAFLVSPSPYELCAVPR

CC1CCNc2c(C(=O)NC/C=C/S(C)(=O)=O)cccc21 (configuration not stated)
C0 [1]: 966.5 ng/mL
t1/2 [2]: 6 min
Vz [3]: 4.5 L/kg
Vdss [4]: 1.9 L/kg
MRT [5]: 3.6 min
Tmax [6]: 4 h
Cmax [7]: 125 ng/mL
MRT [8]: 4.25 h
Survival (Chikungunya virus [9]): Active
Survival (Chikungunya virus [10]): Active
Activity (Chikungunya virus [11]): 5.3
Activity [12]: 28 U/L
Activity [13]: 18 mg/dL
Activity [14]: 0.14 mg/dL
Activity [15]: 0.34 mg/dL
Activity (Chikungunya virus [16]): Active
CLH [17]: < 57.8 µL/min/mg
CLH [18]: 22.7 µL/min/mg
t1/2 [19]: 1.73 h
EC90 (Chikungunya virus [20]): 1.6 µM
IC50 (Cytochrome P450 2C8): > 100 µM
IC50 (Cytochrome P450 2C9): > 100 µM
IC50 (Cytochrome P450 2D6): > 100 µM
IC50 (Cytochrome P450 3A4): > 100 µM
IC50 [21]: > 100 µM
IC50 (Kir2.1): > 100 µM
IC50 [22]: > 100 µM
